Assay results reported in patent US8344010B2, “Fused imidazole derivatives as TRPV3 antagonist” (Glenmark Pharmaceuticals S.A., priority 2008, dated 2013).

Target: T1, Human TRPV3 (Homo sapiens, UniProt Q8NET8)
T1 construct: expressed in transfected cells; host or cells: CHO cells (selected with G-418)
T1 sequence (Q8NET8 1-790): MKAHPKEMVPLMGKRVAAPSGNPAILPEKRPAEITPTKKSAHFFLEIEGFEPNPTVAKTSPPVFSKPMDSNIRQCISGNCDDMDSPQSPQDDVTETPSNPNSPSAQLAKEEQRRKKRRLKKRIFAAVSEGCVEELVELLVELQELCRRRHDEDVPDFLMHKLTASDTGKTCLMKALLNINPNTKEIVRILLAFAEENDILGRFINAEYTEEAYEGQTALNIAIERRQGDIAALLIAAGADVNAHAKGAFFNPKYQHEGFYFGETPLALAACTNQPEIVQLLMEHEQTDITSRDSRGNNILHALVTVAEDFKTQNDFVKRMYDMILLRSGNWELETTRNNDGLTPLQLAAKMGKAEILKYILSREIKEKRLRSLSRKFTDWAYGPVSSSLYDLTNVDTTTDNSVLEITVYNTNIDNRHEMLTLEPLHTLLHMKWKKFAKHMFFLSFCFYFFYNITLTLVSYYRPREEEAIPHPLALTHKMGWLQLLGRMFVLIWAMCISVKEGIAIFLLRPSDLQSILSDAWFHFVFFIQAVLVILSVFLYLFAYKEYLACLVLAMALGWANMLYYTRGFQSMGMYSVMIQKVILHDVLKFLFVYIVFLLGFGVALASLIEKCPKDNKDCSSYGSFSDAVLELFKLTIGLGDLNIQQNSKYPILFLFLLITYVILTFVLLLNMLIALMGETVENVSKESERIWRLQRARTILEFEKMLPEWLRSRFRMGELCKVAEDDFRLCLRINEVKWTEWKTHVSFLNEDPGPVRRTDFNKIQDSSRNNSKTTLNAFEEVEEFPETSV
Experiment: 45Calcium uptake assay: inhibition of 2-APB induced cellular uptake of radioactive calcium
Assay type: cell-based
Conditions: human TRPV3 expressing CHO cells, 2-APB 500 μM; for inhibition at 1 µM: 1 μM test compound, read-out: Percentage Inhibition (1 μM); for inhibition at 10 µM: 10 μM test compound, read-out: Percentage Inhibition (10 μM); for IC50: class symbol
Source text: The illustrative examples of the present invention are screened for TRPV3 activity according to a modified procedure described in Tóth, A., Kedei, N., Wang, Y. and Blumberg, P. M. Life Sciences (2003), 73, 487-498. The screening of the compounds can be carried out by other methods and procedures known to a person skilled in the art. Such screening methods may be found in (a) Hu, H.-Z. et al. J. Biol. Chem. (2004), 279, 35741-35747; (b) Smith, G. D. et al. Nature (2002), 418, 186-190; (c) Peier, A. M. et al. Science (2002), 296, 2046-2049.
Screening for TRPV3 antagonist using the ^45Calcium uptake assay The inhibition of TRPV3 receptor activation was followed as inhibition of 2-aminoethoxydiphenylborate (2-APB) induced cellular uptake of radioactive calcium. Test compounds were dissolved in dimethyl sulfoxide (DMSO) to prepare 20 mM stock solution and then diluted using plain medium with DMEM/F-12 containing 1.8 mM CaCl2 to get desired concentration. Final concentration of DMSO in the reaction was 0.5% (v/v). Human TRPV3 expressing CHO cells were grown in DMEM/F-12 medium with 10% FBS, 1% penicillin-streptomycin solution, 400 μg/ml of G-418. Cells were seeded 24 h prior to the assay in 96 well plates so as to get ˜50,000 cells per well on the day of experiment. Cells were treated with test compounds for 10 minutes followed by addition of 2-APB at a final concentration of 500 μM and 5 μCi/ml^45Ca^+2 for 4 minutes. Cells were washed and lysed using buffer containing 1% Triton X-100, 0.1% deoxycholate and 0.1% SDS. Radioactivity in the lysate was measured in Packardt Top count after addition of liquid scintillant. Concentration response curves were plotted as a % of maximal response obtained in the absence of test antagonist. IC50 value was calculated from concentration response curve by nonlinear regression analysis using GraphPad PRISM software.
Percentage inhibition at concentrations of 1.0 μM and 10.0 μM are given in the table along with IC50 details for selected examples.

inhibition at 1 µM | inhibition at 10 µM | IC50 | Compound
56.1% | 76.9% |  | COc1cccc(/C=C/c2nc3ccccc3n2-c2nc(C)c(C#N)s2)c1OC1CCCC1 [Example 49, 2-{2-[(E)-2-(2-Cyclopentyloxy-3-methoxyphenyl)vinyl]-1H-benzimidazol-1-yl}-4-methyl-1,3-thiazole-5-carbonitrile]
26.1% | 46.6% |  | COc1cccc(/C=C/c2nc3ccccc3n2-c2nc3ccccc3s2)c1OCC1CC1 [Example 50, 2-{2-[(E)-2-(2-Cyclopropylmethoxy-3-methoxyphenyl)vinyl]-1H-benzimidazol-1-yl}-1,3-benzothiazole]
96.2% | 97.8% | 50 to 100 nM | COc1ccc2nc(/C=C/c3cccc(OC)c3OC3CCCC3)n(-c3ccc(C#N)cn3)c2c1 [Example 51, 6-{2-[(E)-2-(2-Cyclopentyloxy-3-methoxyphenyl)vinyl]-6-methoxy-1H-benzimidazol-1-yl}nicotinonitrile]
97.7% | 98.4% | 50 to 100 nM | COc1cccc(/C=C/c2nc3ccc(Cl)cc3n2-c2ccc(C#N)cn2)c1OCC(C)C [Example 52, 6-(6-Chloro-2-{(E)-2-[3-methoxy-2-(2-methylpropoxy)phenyl]ethenyl}-1H-benzimidazol-1-yl)pyridine-3-carbonitrile]
96% | 98.7% | 100 to 500 nM | COc1cccc(/C=C/c2nc3ccc(F)cc3n2-c2ccc(C#N)cn2)c1OC1CCCC1 [Example 53, 6-{2-[(E)-2-(2-Cyclopentyloxy-3-methoxyphenyl)vinyl]-6-fluoro-1H-benzimidazol-1-yl}nicotinonitrile]
95.3% | 97.7% | 50 to 100 nM | COc1cccc(/C=C/c2nc3ccc(Cl)cc3n2-c2ccc(C#N)cn2)c1OC1CCCC1 [Example 54, 6-{6-Chloro-2-[(E)-2-(2-cyclopentyloxy-3-methoxyphenyl)vinyl]-1H-benzimidazol-1-yl}nicotinonitrile]
95.9% | 97.6% | 100 to 500 nM | COc1cccc(/C=C/c2nc3cc(Cl)ccc3n2-c2ccc(C#N)cn2)c1OC1CCCC1 [Example 55, 6-{5-chloro-2-[(E)-2-(2-cyclopentyloxy-3-methoxyphenyl)vinyl]-1H-benzimidazol-1-yl}nicotinonitrile]
96.8% | 98.9% | 100 to 500 nM | COc1ccc2c(c1)nc(/C=C/c1cccc(OC)c1OC1CCCC1)n2-c1ccc(C#N)cn1 [Example 56, 6-{2-[(E)-2-(2-[Cyclopentyloxy]-3-methoxyphenyl)vinyl]-5-methoxy-1H-benzimidazol-1-yl}nicotinonitrile]
93% | 96.1% | 100 to 500 nM | COc1cccc(/C=C/c2nc3cc(C(F)(F)F)ccc3n2-c2ccc(C#N)cn2)c1OC1CCCC1 [Example 57, 6-{2-[(E)-2-(2-[Cyclopentyloxy]-3-methoxyphenyl)vinyl]-5-(trifluoromethyl)-1H-benzimidazol-1-yl}nicotinonitrile]
96.3% | 97.9% | 100 to 500 nM | COc1cccc(/C=C/c2nc3ccc(OC(F)F)cc3n2-c2ccc(C#N)cn2)c1OC1CCCC1 [Example 58, 6-{6-(Difluoromethoxy)-2-[(E)-2-(2-[cyclopentyloxy]-3-methoxyphenyl)vinyl]-1H-benzimidazol-1-yl}nicotinonitrile]
95.8% | 97.9% | 50 to 100 nM | COc1cccc(/C=C/c2nc3cc(OC(F)F)ccc3n2-c2ccc(C#N)cn2)c1OC1CCCC1 [Example 59, 6-{2-[(E)-2-(2-[Cyclopentyloxy]-3-methoxyphenyl)vinyl]-5-(difluoromethoxy)-1H-benzimidazol-1-yl}nicotinonitrile]
32.1% | 30.2% |  | COC(=O)c1ccc(-n2c(/C=C/c3cccc(OC)c3OC3CCCC3)nc3ccc(F)cc32)nc1 [Example 60, Methyl 6-{2-[(E)-2-(2-Cyclopentyloxy-3-methoxyphenyl)vinyl]-6-fluoro-1H-benzimidazol-1-yl}nicotinate]

Continued, compound first:

Compound | inhibition at 1 µM | inhibition at 10 µM | IC50
COc1cccc(/C=C/c2nc3ccccc3n2-c2ccc(F)c(C#N)c2)c1OCC1CC1 [Example 38] | 48.3% | 59.2% | 
COc1cccc(/C=C/c2nc3ccccc3n2-c2ccc(C#N)cc2F)c1OCC1CC1 [Example 39, 4-{2-[(E)-2-(2-Cyclopropylmethoxy-3-methoxyphenyl)vinyl]-1H-benzimidazol-1-yl}-3-fluorobenzonitrile] | 76.8% | 94.2% | 100 to 500 nM
COc1cccc(/C=C/c2nc3ccccc3n2Cc2ccc(C(C)(C)C)cc2)c1OC1CCCC1 [Example 40, 2-[(E)-2-(2-Cyclopentyloxy-3-methoxyphenyl)vinyl]-1-(4-tert-butylbenzyl)-1H-benzimidazole] | 11.7% | 12.3% | 
COc1cccc(/C=C/c2nc3ccccc3n2Cc2ccc(F)cc2F)c1OCC1CC1 [Example 41, 1-(2,4-Difluorobenzyl)-2-[(E)-2-(2-cyclopropylmethoxy-3-methoxyphenyl)vinyl]-1H-benzimidazole] | 57.7% | 86.5% | 
COc1cccc(/C=C/c2nc3ccccc3n2Cc2ccc(C#N)cc2)c1OCC1CC1 [Example 42, 4-({2-[(E)-2-(2-Cyclopropylmethoxy-3-methoxyphenyl)vinyl]-1H-benzimidazol-1-yl}methyl)benzonitrile] | 60.2% | 87.3% | 
COc1cccc(/C=C/c2nc3ccccc3n2Cc2ccc(C#N)cc2)c1OC1CCCC1 [Example 43, 4-({2-[(E)-2-(2-Cyclopentyloxy-3-methoxyphenyl)vinyl]-1H-benzimidazol-1-yl}methyl)benzonitrile] | 88.8% | 97.5% | 100 to 500 nM
COc1cccc(/C=C/c2nc3ccccc3n2Cc2ccc(C#N)cc2)c1OCc1ccccc1F [Example 44, 4-({2-[(E)-2-(2-{2-Fluorobenzyloxy}-3-methoxyphenyl)vinyl]-1H-benzimidazol-1-yl}methyl)benzonitrile] | 60% | 87.1% | 
COc1cccc(/C=C/c2nc3ccccc3n2-c2cccs2)c1OCC1CC1 [Example 45, 2-[(E)-2-(2-Cylopropymethoxy-3-methoxyphenyl)]-1-(2-thienyl)-1H-benzimidazole] | 43.4% | 83.8% | 
COc1cccc(/C=C/c2nc3ccccc3n2-c2nccs2)c1OCC1CC1 [Example 46] | 16.1% | 81.1% | 
COc1cccc(/C=C/c2nc3ccccc3n2-c2nccs2)c1OC1CCCC1 [Example 47, 2-[(E)-2-(2-Cyclopentyloxy-3-methoxyphenyl)vinyl]-1-(1,3-thiazol-2-yl)-1H-benzimidazole] | 22.4% | 79.7% | 
COc1cccc(/C=C/c2nc3ccccc3n2-c2ncc(C#N)s2)c1OC1CCCC1 [Example 48, 2-{2-[(E)-2-(2-[Cyclopentyloxy]-3-methoxyphenyl)vinyl]-1H-benzimidazol-1-yl}-1,3-thiazole-5-carbonitrile] | 43.5% | 75.8% | 
